Assay results reported in ChEMBL document CHEMBL1201862, “PubChem BioAssay data set” (2004).
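Where inhibition never reached the appropriate level, the endpoint shown equals the highest concentration tested. Otherwise, values were interpolated linearly from a five-concentration, 48-hour dose response in 96-well plates. GI50: concentration for 50% inhibition of growth.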 Activity calls are given as the source filed them. Cut-off read from the data, not from the text of the source: active = GI50 up to about 1.1 µM and inactive = higher.

Assays:
Test in all cases: inhibition of tumour cell growth, NCI panel, 48 h
SK-MEL-5 = test system: SK-MEL-5
NCI-H460 = test system: NCI-H460
HOP-92 = test system: HOP-92
A549 = test system: A549
NCI-H23 = test system: NCI-H23
SW-620 = test system: SW-620
HT-29 = test system: HT-29
786-0 = test system: 786-0
SF-295 = test system: SF-295
HCT-116 = test system: HCT-116
NCI-H522 = test system: NCI-H522
CCRF-CEM = test system: CCRF-CEM
OVCAR-5 = test system: OVCAR-5
CAKI-1 = test system: CAKI-1
UACC-62 = test system: UACC-62
HCC 2998 = test system: HCC 2998
NCI/ADR-RES = test system: NCI/ADR-RES
Malme-3M = test system: Malme-3M
EKVX = test system: EKVX
UACC-257 = test system: UACC-257
RXF 393 = test system: RXF 393
OVCAR-8 = test system: OVCAR-8
SK-MEL-2 = test system: SK-MEL-2
BT-549 = test system: BT-549
SNB-19 = test system: SNB-19
Hs-578T = test system: Hs-578T
COLO 205 = test system: COLO 205
SF-268 = test system: SF-268
MDA-MB-231 = test system: MDA-MB-231
UO-31 = test system: UO-31
ACHN = test system: ACHN
SN12C = test system: SN12C
SK-OV-3 = test system: SK-OV-3
M14 = test system: M14
OVCAR-3 = test system: OVCAR-3
PC-3 = test system: PC-3
IGROV-1 = test system: IGROV-1
U-251 = test system: U-251
MCF7 = test system: MCF7
LOX IMVI = test system: LOX IMVI
T47D = test system: T47D
MOLT-4 = test system: MOLT-4
SR = test system: SR
NCI-H226 = test system: NCI-H226
OVCAR-4 = test system: OVCAR-4
K562 = test system: K562
SK-MEL-28 = test system: SK-MEL-28
MDA-MB-435 = test system: MDA-MB-435
TK-10 = test system: TK-10
KM12 = test system: KM12
RPMI-8226 = test system: RPMI-8226
HCT-15 = test system: HCT-15
HL-60 = test system: HL-60
MDA-N = test system: MDA-N
DU-145 = test system: DU-145
SF-539 = test system: SF-539
HOP-62 = test system: HOP-62
SNB-75 = test system: SNB-75
A498 = test system: A498

Measured: GI50

O=S(=O)(/C=C/C=C/S(=O)(=O)c1ccccc1)c1ccccc1
inactive: NCI-H460 6.1 µM | HOP-92 1.37 µM | A549 9.27 µM | NCI-H23 1.35 µM | HT-29 1.18 µM | SF-295 10.4 µM | HCT-116 1.27 µM | OVCAR-5 7.83 µM | CAKI-1 1.24 µM | HCC 2998 11.5 µM | NCI/ADR-RES 1.93 µM | Malme-3M 1.17 µM | EKVX 1.72 µM | SK-MEL-2 2.72 µM | BT-549 1.15 µM | SNB-19 17.5 µM | Hs-578T 2.43 µM | COLO 205 1.44 µM | SF-268 1.7 µM | MDA-MB-231 1.56 µM | UO-31 1.46 µM | SN12C 2 µM | SK-OV-3 8 µM | PC-3 4.68 µM | IGROV-1 4.56 µM | U-251 4.12 µM | NCI-H226 7.62 µM | OVCAR-4 1.65 µM | SK-MEL-28 1.32 µM | MDA-MB-435 1.45 µM | TK-10 1.57 µM | KM12 2.29 µM | MDA-N 1.24 µM | DU-145 14.6 µM | SF-539 3.88 µM | HOP-62 6.76 µM | SNB-75 6.61 µM
active: SK-MEL-5 0.853 µM | SW-620 0.172 µM | 786-0 0.537 µM | NCI-H522 0.174 µM | CCRF-CEM 0.151 µM | UACC-62 0.721 µM | UACC-257 0.733 µM | RXF 393 0.36 µM | OVCAR-8 0.573 µM | ACHN 0.769 µM | M14 0.507 µM | OVCAR-3 0.721 µM | MCF7 0.845 µM | LOX IMVI 0.713 µM | T47D 1.04 µM | MOLT-4 0.315 µM | SR 0.285 µM | K562 0.269 µM | RPMI-8226 0.419 µM | HL-60 0.256 µM
1.2 µM: HCT-15

OC(c1ccccc1)(c1ccccc1)c1nccc2ccccc12
37.3 µM: HCT-15
inactive: SK-MEL-5 14.1 µM | NCI-H460 17.3 µM | A549 36.9 µM | NCI-H23 20.8 µM | HT-29 26.8 µM | 786-0 55 µM | SF-295 15.8 µM | HCT-116 27.9 µM | NCI-H522 16.7 µM | CCRF-CEM 23.6 µM | OVCAR-5 31.7 µM | CAKI-1 20.1 µM | UACC-62 21.5 µM | NCI/ADR-RES 34.6 µM | Malme-3M 30 µM | EKVX 20.7 µM | UACC-257 31 µM | OVCAR-8 37.8 µM | BT-549 14.3 µM | SNB-19 27.9 µM | Hs-578T 28.5 µM | COLO 205 28.1 µM | SF-268 44.2 µM | MDA-MB-231 37.7 µM | UO-31 17.8 µM | ACHN 37.6 µM | SN12C 44.5 µM | SK-OV-3 22.5 µM | M14 20.8 µM | OVCAR-3 17.2 µM | PC-3 22.2 µM | IGROV-1 40 µM | U-251 29.3 µM | MCF7 35.2 µM | LOX IMVI 17.6 µM | T47D 27.3 µM | MOLT-4 16.7 µM | SR 37.8 µM | OVCAR-4 31.6 µM | K562 > 10 µM | SK-MEL-28 22.6 µM | MDA-MB-435 30.8 µM | TK-10 12.9 µM | KM12 35.9 µM | RPMI-8226 38.3 µM | HL-60 32.3 µM | MDA-N 30.1 µM | DU-145 41.7 µM | HOP-62 18.9 µM

NNC(=O)c1ccccc1NC(=O)/C(=C/c1ccccc1)NC(=O)c1ccccc1
46.7 µM: HCT-15
inactive: SK-MEL-5 > 100 µM | NCI-H460 80 µM | HOP-92 > 100 µM | A549 > 100 µM | NCI-H23 > 100 µM | SW-620 > 100 µM | HT-29 > 100 µM | 786-0 > 100 µM | SF-295 > 100 µM | HCT-116 88.1 µM | NCI-H522 > 100 µM | CCRF-CEM 43.6 µM | OVCAR-5 > 100 µM | CAKI-1 > 100 µM | UACC-62 > 100 µM | HCC 2998 > 100 µM | NCI/ADR-RES 56.8 µM | Malme-3M > 100 µM | EKVX > 100 µM | UACC-257 71.6 µM | RXF 393 > 100 µM | A498 > 100 µM | OVCAR-8 > 100 µM | SK-MEL-2 > 100 µM | BT-549 60.4 µM | SNB-19 43 µM | Hs-578T 54.1 µM | COLO 205 > 100 µM | SF-268 > 100 µM | MDA-MB-231 47.9 µM | UO-31 65.3 µM | ACHN > 100 µM | SN12C > 100 µM | SK-OV-3 > 100 µM | M14 81.1 µM | OVCAR-3 > 100 µM | PC-3 > 100 µM | IGROV-1 68.1 µM | U-251 58.6 µM | MCF7 > 100 µM | LOX IMVI 68.1 µM | T47D > 100 µM | MOLT-4 > 100 µM | NCI-H226 > 100 µM | OVCAR-4 > 100 µM | K562 > 100 µM | SK-MEL-28 > 100 µM | MDA-MB-435 54.3 µM | TK-10 > 100 µM | KM12 27.8 µM | RPMI-8226 > 100 µM | HL-60 76.9 µM | MDA-N 72.4 µM | DU-145 > 100 µM | SF-539 > 100 µM | HOP-62 49.1 µM | SNB-75 70.1 µM
